# Laboratory results reported in ChEMBL document CHEMBL1275493, “Anti-human immunodeficiency virus type 1 activities of antimicrobial peptides derived from human and bovine cathelicidins” (Antimicrob Agents Chemother, 2008).
# pEC50: −log10 of the molar value. Peptide text beside a SMILES is read from it.
# Tests used:
# [1] = system: Human immunodeficiency virus 1; assay: Antiviral activity against Human immunodeficiency virus 1 3B infected in CEM-SS cells; format: functional, organism-based
# CEM-SS = assay: Cytotoxicity against Human immunodeficiency virus 1 3B infected human CEM-SS cells; format: functional; conditions: read-out: TC50 (the source's name)
# [2] = Therapeutic index, TC50 for Human immunodeficiency virus 1 3B infected human CEM-SS cells to EC50 for immunodeficiency virus 1 3B; format: cell-based; conditions: CEM-SS cells infected with HIV-1 3B, read-out: TI
SMILES,pEC50 [1],CC50 (CEM-SS),selectivity ratio [2]
CC[C@H](C)[C@H](NC(=O)[C@H](CCCCN)NC(=O)[C@H](CCC(=O)O)NC(=O)[C@H](CCCCN)NC(=O)[C@@H](N)CO)C(=O)NCC(=O)N[C@@H](CCCCN)C(=O)N[C@@H](CCC(=O)O)C(=O)N[C@@H](Cc1ccccc1)C(=O)N[C@@H](CCCCN)C(=O)N[C@@H](CCCNC(=N)N)C(=O)N[C@H](C(=O)N[C@H](C(=O)N[C@@H](CCC(N)=O)C(=O)N[C@@H](CCCNC(=N)N)C(=O)N[C@H](C(=O)N[C@@H](CCCCN)C(=O)N[C@@H](CC(=O)O)C(=O)N[C@@H](Cc1ccccc1)C(=O)N[C@@H](CC(C)C)C(=O)N[C@@H](CCCNC(=N)N)C(=O)O)[C@@H](C)CC)C(C)C)[C@@H](C)CC (H-SKEKIGKEFKRIVQRIKDFLR-OH),4.97,22.5 µM,2.08
CC[C@H](C)[C@H](NC(=O)[C@H](CCCNC(=N)N)NC(=O)[C@H](CCC(N)=O)NC(=O)[C@@H](NC(=O)[C@@H](NC(=O)[C@H](CCCNC(=N)N)NC(=O)[C@H](CCCCN)NC(=O)[C@H](Cc1ccccc1)NC(=O)CN)[C@@H](C)CC)C(C)C)C(=O)N[C@@H](CCCCN)C(=O)N[C@@H](CC(=O)O)C(=O)N[C@@H](Cc1ccccc1)C(=O)N[C@@H](CC(C)C)C(=O)N[C@@H](CCCNC(=N)N)C(=O)N[C@@H](CC(N)=O)C(=O)N[C@@H](CC(C)C)C(=O)N[C@H](C(=O)O)C(C)C,6.01,8.9 µM,9.1
